Laboratory results from PubChem BioAssay AID330 (DTP/NCI, 2004).
“And” between values parts separate entries of the source, which are not always exact repeats. Equal values may be shown once. Inconclusive results and toxic doses are left out. The calls were made as follows: active = survival T/C of 150% or more; inactive = T/C below 125% in these data.

Tested on: P388 leukemia ip, CD2F1 mice, survival T/C
Experiment: NCI In Vivo Anticancer Drug Screen. Data for tumor model P388 Leukemia (intraperitoneal) in CD2F1 (CDF1) mice
Conditions: endpoint: median survival time, higher = longer survival
How it was run: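 Mice carrying the transplanted tumor received test compound or vehicle. Survival was recorded in each group, and the value is the treated-group measurement divided by that of the vehicle-treated control group.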

[1] = dose: 50.0 mg/kg/injection, schedule: Q01DX005 (ip), vehicle: Klucel (hydroxypropylcellulose) (HPC)
[2] = dose: 12.5 mg/kg/injection, schedule: Q01DX009 (ip), vehicle: saline
[3] = dose: 25.0 mg/kg/injection, schedule: Q01DX009 (ip), vehicle: saline
[4] = dose: 50.0 mg/kg/injection, schedule: Q01DX009 (ip), vehicle: saline
[5] = dose: 100.0 mg/kg/injection, schedule: Q01DX009 (ip), vehicle: saline
[6] = dose: 60.0 mg/kg/injection, schedule: Q01DX005 (ip), vehicle: saline with Tween-80
[7] = dose: 120.0 mg/kg/injection, schedule: Q01DX005 (ip), vehicle: saline with Tween-80
[8] = dose: 50.0 mg/kg/injection, schedule: Q01DX005 (ip), vehicle: saline with Tween-80
[9] = dose: 100.0 mg/kg/injection, schedule: Q01DX005 (ip), vehicle: saline with Tween-80
[10] = dose: 200.0 mg/kg/injection, schedule: Q01DX005 (ip), vehicle: saline with Tween-80

Measured: T/C

CC(C)C(OCc1ccccc1)C(=O)O (stereo not given)
inactive: dose: 50.0 mg/kg/injection, schedule: Q01DX009 (ip), vehicle: alcohol 88 % of control | dose: 100.0 mg/kg/injection, schedule: Q01DX009 (ip), vehicle: alcohol 98 % of control | dose: 200.0 mg/kg/injection, schedule: Q01DX009 (ip), vehicle: alcohol 104 % of control

BrCOCCCCOCBr
inactive: dose: 60.0 mg/kg/injection, schedule: Q01DX005 (ip), vehicle: saline 114 % of control | dose: 120.0 mg/kg/injection, schedule: Q01DX005 (ip), vehicle: saline 101 % of control | dose: 240.0 mg/kg/injection, schedule: Q01DX005 (ip), vehicle: saline 108 % of control

N#C/C(=C1/Nc2ccccc2NC1=O)c1ccccc1
inactive: dose: 50.0 mg/kg/injection, schedule: Q01DX009 (ip), vehicle: distilled water + Tween-80 + alcohol 96 % of control | dose: 100.0 mg/kg/injection, schedule: Q01DX009 (ip), vehicle: distilled water + Tween-80 + alcohol 92 % of control

NC(Cc1cccc2ccccc12)C(=O)O (stereo not given)
inactive: dose: 12.5 mg/kg/injection, schedule: Q01DX005 (ip), vehicle: Klucel (hydroxypropylcellulose) (HPC) 93 % of control | dose: 25.0 mg/kg/injection, schedule: Q01DX005 (ip), vehicle: Klucel (hydroxypropylcellulose) (HPC) 100 % of control | [1] 102 % of control and 110 % of control

COc1ccc(/C(C#N)=C/c2ccncc2)cc1OC
inactive: [2] 102 % of control | [3] 97 % of control | [4] 101 % of control | [5] 101 % of control

O=c1n(-c2ccccc2)c(=O)n2n1C1C3C4C5C1C5C2C43 (stereo not given)
inactive: dose: 6.25 mg/kg/injection, schedule: Q01DX009 (ip), vehicle: Klucel (hydroxypropylcellulose) (HPC) 100 % of control | dose: 12.5 mg/kg/injection, schedule: Q01DX009 (ip), vehicle: Klucel (hydroxypropylcellulose) (HPC) 87 % of control

COc1cc(-c2nc(SC)n[nH]2)cc(OC)c1OC
inactive: [1] 95 % of control | dose: 100.0 mg/kg/injection, schedule: Q01DX005 (ip), vehicle: Klucel (hydroxypropylcellulose) (HPC) 104 % of control | dose: 200.0 mg/kg/injection, schedule: Q01DX005 (ip), vehicle: Klucel (hydroxypropylcellulose) (HPC) 88 % of control

CC(Cl)(C=O)c1ccccc1 (stereo not given)
inactive: [6] 100 % of control | [7] 97 % of control

O=S(=O)(O)C1=CC(=N/Br)/C=CC/1=N\Br
inactive: dose: 50.0 mg/kg/injection, schedule: Q01DX005 (ip), vehicle: saline 118 % of control and 119 % of control | dose: 100.0 mg/kg/injection, schedule: Q01DX005 (ip), vehicle: saline 115 % of control and 121 % of control | dose: 200.0 mg/kg/injection, schedule: Q01DX005 (ip), vehicle: saline 118 % of control and 121 % of control

COc1ccccc1N=NC1=C2Sc3ccccc3N=C1N(c1ccccn1)C(=S)N2c1ccc(Cl)cc1
inactive: dose: 12.5 mg/kg/injection, schedule: Q01DX005 (ip), vehicle: saline with Tween-80 103 % of control | dose: 25.0 mg/kg/injection, schedule: Q01DX005 (ip), vehicle: saline with Tween-80 100 % of control | [8] 110 % of control and 117 % of control

COc1cc2c(c(OC)c1OC)-c1ccc(OC)c(=O)cc1[C@@H](NC(=O)c1ccccc1)CC2
active: dose: 0.5 mg/kg/injection, schedule: Q01DX009 (ip), vehicle: Klucel (hydroxypropylcellulose) (HPC) 156 % of control | dose: 0.63 mg/kg/injection, schedule: Q01DX009 (ip), vehicle: distilled water + Tween-80 154 % of control | dose: 1.0 mg/kg/injection, schedule: Q01DX009 (ip), vehicle: Klucel (hydroxypropylcellulose) (HPC) 182 % of control | dose: 1.25 mg/kg/injection, schedule: Q01DX009 (ip), vehicle: distilled water + Tween-80 218 % of control | dose: 2.0 mg/kg/injection, schedule: Q01DX009 (ip), vehicle: saline with Tween-80 165 % of control | dose: 2.5 mg/kg/injection, schedule: Q01DX009 (ip), vehicle: distilled water + Tween-80 261 % of control | dose: 5.0 mg/kg/injection, schedule: Q04DX003 (ip), vehicle: saline with Tween-80 186 % of control | dose: 7.5 mg/kg/injection, schedule: Q04DX003 (ip), vehicle: saline sonified 154 % of control
inactive: dose: 0.5 mg/kg/injection, schedule: Q01DX009 (ip), vehicle: saline with Tween-80 121 % of control | dose: 4.0 mg/kg/injection, schedule: Q01DX009 (ip), vehicle: saline with Tween-80 86 % of control | dose: 5.0 mg/kg/injection, schedule: Q04DX003 (ip), vehicle: saline sonified 109 % of control

CCCCCCC(=O)/C=C/c1ccc2c(c1)OCO2
inactive: dose: 50.0 mg/kg/injection, schedule: Q01DX009 (ip), vehicle: saline with Tween-80 96 % of control | dose: 100.0 mg/kg/injection, schedule: Q01DX009 (ip), vehicle: saline with Tween-80 102 % of control | dose: 200.0 mg/kg/injection, schedule: Q01DX009 (ip), vehicle: saline with Tween-80 91 % of control

Cc1ccc(NC(=O)CCC(=O)C(C)C(=O)c2ccccc2)c(C)c1 (stereo not given)
inactive: [8] 99 % of control | [9] 97 % of control | [10] 97 % of control

CC(C)(C)OP(=O)(NN)OC(C)(C)C
inactive: [4] 101 % of control | [5] 108 % of control | dose: 200.0 mg/kg/injection, schedule: Q01DX009 (ip), vehicle: saline 99 % of control

CCNC(=O)CCC(NS(=O)(=O)c1ccc(NC(=O)c2ccc(Cl)cc2)cc1)C(=O)O (stereo not given)
inactive: [8] 107 % of control | [9] 104 % of control | [10] 102 % of control

COc1ccc2c(c1)OC1CC2NC(N)=N1 (stereo not given)
inactive: dose: 6.25 mg/kg/injection, schedule: Q01DX009 (ip), vehicle: saline 100 % of control | [2] 107 % of control | [3] 109 % of control

CC12CCC(CC1=O)C2(C)CC#N (stereo not given)
inactive: dose: 7.5 mg/kg/injection, schedule: Q01DX005 (ip), vehicle: saline 101 % of control | dose: 15.0 mg/kg/injection, schedule: Q01DX005 (ip), vehicle: saline 100 % of control

CC(C)NCC(O)COc1ccc(CCOC(=O)CCc2ccc(C(O)(C(F)(F)F)C(F)(F)F)cc2)cc1 (stereo not given)
inactive: dose: 30.0 mg/kg/injection, schedule: Q01DX005 (ip), vehicle: saline with Tween-80 98 % of control | [6] 96 % of control | [7] 102 % of control

C=CC1(C)CCC2C(=CCC3C(C)(COC4OC(CO)C(O)C(O)C4O)C(O)CCC23C)C1 (stereo not given)
inactive: dose: 3.0 mg/kg/injection, schedule: Q01DX009 (ip), vehicle: Klucel (hydroxypropylcellulose) (HPC) 100 % of control | dose: 6.0 mg/kg/injection, schedule: Q01DX009 (ip), vehicle: Klucel (hydroxypropylcellulose) (HPC) 94 % of control | dose: 12.0 mg/kg/injection, schedule: Q01DX009 (ip), vehicle: Klucel (hydroxypropylcellulose) (HPC) 103 % of control | dose: 24.0 mg/kg/injection, schedule: Q01DX009 (ip), vehicle: Klucel (hydroxypropylcellulose) (HPC) 103 % of control | dose: 48.0 mg/kg/injection, schedule: Q01DX009 (ip), vehicle: Klucel (hydroxypropylcellulose) (HPC) 106 % of control

c1cc(-c2cc3ccc(C4=NCCN4)cc3[nH]2)ccc1C1=NCCN1
inactive: dose: 6.25 mg/kg/injection, schedule: Q04DX003 (ip), vehicle: saline 116 % of control | dose: 12.5 mg/kg/injection, schedule: Q04DX003 (ip), vehicle: saline 118 % of control
active: dose: 50.0 mg/kg/injection, schedule: Q04DX003 (ip), vehicle: saline 154 % of control and 171 % of control and 172 % of control

CC1(c2ccccc2)OC(=O)C=CC1=O (stereo not given)
inactive: [6] 110 % of control | [7] 104 % of control | dose: 240.0 mg/kg/injection, schedule: Q01DX005 (ip), vehicle: saline with Tween-80 108 % of control

C=C1C(=O)OC(C)(C)C1c1ccccc1 (stereo not given)
inactive: dose: 50.0 mg/kg/injection, schedule: Q01DX009 (ip), vehicle: Klucel (hydroxypropylcellulose) (HPC) 96 % of control | dose: 100.0 mg/kg/injection, schedule: Q01DX009 (ip), vehicle: Klucel (hydroxypropylcellulose) (HPC) 90 % of control

CCC(=O)[C@]1(O)Cc2c(O)c3c(c(O)c2[C@@H](OC2CC(N)C(O)C(C)O2)C1)C(=O)c1c(OC)cccc1C3=O (stereo not given in full)
inactive: dose: 3.13 mg/kg/injection, schedule: Q04DX003 (ip), vehicle: water 102 % of control | dose: 6.25 mg/kg/injection, schedule: Q04DX003 (ip), vehicle: water 112 % of control | dose: 12.5 mg/kg/injection, schedule: Q04DX003 (ip), vehicle: water 119 % of control | dose: 25.0 mg/kg/injection, schedule: Q04DX003 (ip), vehicle: water 119 % of control | dose: 50.0 mg/kg/injection, schedule: Q04DX003 (ip), vehicle: water 110 % of control

CCNc1nc(NC(C)C)nc(SC)n1
inactive: dose: 50.0 mg/kg/injection, schedule: Q04DX003 (ip), vehicle: saline with Tween-80 91 % of control | dose: 100.0 mg/kg/injection, schedule: Q04DX003 (ip), vehicle: saline with Tween-80 100 % of control | dose: 200.0 mg/kg/injection, schedule: Q04DX003 (ip), vehicle: saline with Tween-80 87 % of control
